Source: patent US7151105B2, “Inhibitors of Hepatitis C virus RNA-dependent RNA polymerase, and compositions and treatments using the same” (Agouron Pharmaceuticals, Inc., priority 2004, dated 2006)
pIC50: −log10 of the molar value.

These molecules were tested against T1, Recombinant HCV polymerase (Hepatitis C virus genotype 1b, UniProt P26663) (assay: biochemical). Conditions: inhibition of polymerase-directed transcription; 30 min at 30° C; 30 nM enzyme; cpm data in triplicate.
T1 construct: Recombinant HCV polymerase was tested for its ability to perform primer/template-directed transcription
Outline: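 Primer/template-directed RNA synthesis by 2.5 pmol HCV polymerase on poly(rC)300/biotin-dG12 with 1 μM GTP plus α-32P-GTP, in pH 7.2 Tris buffer with 10 mM MgCl2, for 30 min at 30 °C. Products were filter-captured and counted, with 1% DMSO final. IC50 was fitted from triplicate cpm; percent inhibition was reported where IC50 was impractical.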

T1 sequence (P26663 2420-3010): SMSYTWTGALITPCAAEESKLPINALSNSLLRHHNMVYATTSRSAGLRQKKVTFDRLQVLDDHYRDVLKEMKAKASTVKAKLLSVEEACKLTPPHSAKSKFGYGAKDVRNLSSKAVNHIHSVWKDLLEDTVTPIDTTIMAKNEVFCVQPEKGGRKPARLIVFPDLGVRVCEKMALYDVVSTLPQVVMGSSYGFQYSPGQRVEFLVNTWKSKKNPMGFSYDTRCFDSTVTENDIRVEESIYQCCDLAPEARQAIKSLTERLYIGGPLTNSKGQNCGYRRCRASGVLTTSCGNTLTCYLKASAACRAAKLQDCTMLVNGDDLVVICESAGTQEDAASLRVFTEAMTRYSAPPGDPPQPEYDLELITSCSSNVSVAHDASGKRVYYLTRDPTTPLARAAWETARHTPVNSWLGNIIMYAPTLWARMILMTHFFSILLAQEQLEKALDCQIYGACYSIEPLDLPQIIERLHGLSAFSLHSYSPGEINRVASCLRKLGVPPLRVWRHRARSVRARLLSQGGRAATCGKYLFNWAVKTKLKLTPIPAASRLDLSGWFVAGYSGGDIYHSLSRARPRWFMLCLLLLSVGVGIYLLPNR

Row | pIC50 | Structure (SMILES)
1 | 7.72 | Cc1cnc2nc(CC3=C(O)CC(CCc4ccc(C(C)(C)O)c(Cl)c4)(C4CCCC4)OC3=O)nn2c1 (centres unmarked) [B(36), 6-{2-[3-Chloro-4-(1-hydroxy-1-methylethyl)phenyl]ethyl}-6-cyclopentyl-4-hydroxy-3-[(6-methyl[1,2,4]triazolo[1,5-a]pyrimidin-2-yl)methyl]-5,6-dihydro-2H-pyran-2-one]
2 | 7.66 | Cc1cc(C)n2nc(CC3=C(O)CC(CCc4ccc(C(C)(C)O)c(Cl)c4)(C4CCCC4)OC3=O)nc2n1 (centres unmarked) [B(37), 6-{2-[3-Chloro-4-(1-hydroxy-1-methylethyl)phenyl]ethyl}-6-cyclopentyl-3[(5,7-dimethyl[1,2,4]triazolo[1,5-a]pyrimidin-2-yl)methyl]-4-hydroxy-5,6-dihydro-2H-pyran-2-one]
3 | 7.17 | CC(C)(O)c1ccc(CCC2(C3CCCC3)CC(O)=C(Cc3nc4ncc(Cl)cn4n3)C(=O)O2)cc1Cl (centres unmarked) [B(38), 6-{2-[3-Chloro-4-(1-hydroxy-1-methylethyl)phenyl]ethyl}-3-[(6-chloro[1,2,4]triazolo[1,5-a]pyrimidin-2-yl)methyl]-6-cyclopentyl-4-hydroxy-5,6-dihydro-2H-pyran-2-one]
4 | 7.37 | CCn1nc(CC2=C(O)CC(CCc3ccc(C(C)(C)C#N)c(F)c3)(C3CCCC3)OC2=O)nc1C (centres unmarked) [Example B(50), 2-[4-(2-{2-Cyclopentyl-5-[(1-ethyl-5-methyl-1H-1,2,4-triazol-3-yl)methyl]-4-hydroxy-6-oxo-3,6dihydro-2H-pyran-2-yl}ethyl)-2-fluorophenyl]-2-methylpropanenitrile]
5 | 7.62 | CN(C)c1c(CC2=C(O)CC(CCc3ccc(C(C)(C)C#N)c(F)c3)(C3CCCC3)OC2=O)c(C(F)F)nn1C (centres unmarked) [Example B(51), 2-{4-[2-(2-Cyclopentyl-5-{[3-(difluoromethyl)-5-(dimethylamino)-1-methyl-1H-pyrazol-4-yl]methyl}-4-hydroxy-6-oxo-3,6-dihydro-2H-pyran-2-yl)ethyl]-2-fluorophenyl}-2-methylpropanenitrile]

Second part, the molecule before the results:

Row | Structure (SMILES) | pIC50
6 | Cc1cc(C)n2nc(CC3=C(O)CC(CCc4ccc(C(C)(C)O)c(C)c4)(C4CCCC4)OC3=O)nc2n1 (centres unmarked) [B(32), 6-Cyclopentyl-3-[(5,7-dimethyl[1,2,4]triazolo[1,5-a]pyrimidin-2-yl)methyl]-4-hydroxy-6-{2-[4-(1-hydroxy-1-methylethyl)-3-methylphenyl]ethyl}-5,6-dihydro-2H-pyran-2-one] | 7.04
7 | CCc1cc(CCC2(C3CCCC3)CC(=O)CC(=O)O2)ccc1CO (centres unmarked) [B(34), 6-Cyclopentyl-6-{2-[3-ethyl-4-(hydroxymethyl)phenyl]ethyl}dihydro-2H-pyran-2,4(3H)-dione] | 5.89
8 | CC(C)(O)c1ccc(CCC2(C3CCCC3)CC(O)=C(Cc3nc4ncccn4n3)C(=O)O2)cc1Cl (centres unmarked) [B(35), 6-{2-[3-Chloro-4-(1-hydroxy-1-methylethyl)phenyl]ethyl}-6-cyclopentyl-4-hydroxy-3-([1,2,4]triazolo[1,5-a]pyrimidin-2-ylmethyl)-5,6-dihydro-2H-pyran-2-one] | 8.00
